# Test results: ChEMBL document CHEMBL1138538, “Design, synthesis, and evaluation of 10-N-substituted acridones as novel chemosensitizers in Plasmodium falciparum” (Antimicrob Agents Chemother, 2007)
# Experiments:
# [1] = target: Sodium-dependent noradrenaline transporter (Homo sapiens, UniProt P23975)
# Description: Inhibition of [3H]norepinephrine uptake at human NET expressed in HEK293 cells
# cells = conditions: Mus musculus, C57BL/6J, Splenocyte, 72 h
# Description: Cytotoxicity against C57BL/6J mouse splenocytes after 72 hrs by alamar blue assay
# Plasmodium falciparum [2] = assay: microbe, parasite or virus in culture; conditions: Dd2, 72 h
# [3] = target: Sodium-dependent serotonin transporter (Homo sapiens, UniProt P31645); type: cell-based, HEK293
# Description: Inhibition of [3H]5HT uptake at human SERT expressed in HEK293 cells
# [4] = target: Sodium-dependent dopamine transporter (Homo sapiens, UniProt Q01959)
# Description: Inhibition of [3H]dopamine uptake at human DAT expressed in HEK293 cells
# Plasmodium falciparum [5] = assay: microbe, parasite or virus in culture; conditions: D6, 72 h
# Plasmodium falciparum [6] = assay: Antimalarial activity after 72 hrs against chloroquine-resistant transporter 106/1'76I mutant Plasmodium falciparum infected in human erythrocytes by SYBR green assay; type: functional, organism-based
# Plasmodium falciparum [7] = assay: Chemosensitizing activity after 72 hrs against chloroquine-sensitive Plasmodium falciparum D6 infected human erythrocytes as IC50 ratio desethylchloroquine +/- 500 nM drug by SYBR green assay; type: functional
# Histamine H1 receptor = Histamine H1 receptor (Homo sapiens, UniProt P35367); assay: biochemical; type: cell-based, CHO
# Description: Displacement of [3H]pyrilamine from human histamine receptor subtype 1 expressed in CHO cells
# Plasmodium falciparum [8] = assay: Chemosensitizing activity after 72 hrs against chloroquine-resistant Plasmodium falciparum Dd2 infected human erythrocytes as IC50 ratio quinine +/- 500 nM by SYBR green assay; type: functional
# Plasmodium falciparum [9] = assay: Antimalarial activity after 72 hrs against chloroquine-resistant transporter 106/1'76T mutant Plasmodium falciparum infected human erythrocytes by SYBR green assay; type: functional, organism-based
# Plasmodium falciparum [10] = assay: Antimalarial activity after 72 hrs against chloroquine-resistant transporter 106/1'76N mutant Plasmodium falciparum infected human erythrocytes by SYBR green assay; type: functional, organism-based
# Plasmodium falciparum [11] = assay: Chemosensitizing activity after 72 hrs against chloroquine-resistant Plasmodium falciparum Dd2 infected human erythrocytes as IC50 ratio desethylchloroquine +/- 500 nM by SYBR green assay; type: functional
# Plasmodium falciparum [12] = assay: Chemosensitizing activity after 72 hrs against chloroquine-sensitive Plasmodium falciparum D6 infected human erythrocytes as IC50 ratio quinine +/- 500 nM by SYBR green assay; type: functional
# Chain of Sodium-dependent dopamine transporter (Q01959 whole entry): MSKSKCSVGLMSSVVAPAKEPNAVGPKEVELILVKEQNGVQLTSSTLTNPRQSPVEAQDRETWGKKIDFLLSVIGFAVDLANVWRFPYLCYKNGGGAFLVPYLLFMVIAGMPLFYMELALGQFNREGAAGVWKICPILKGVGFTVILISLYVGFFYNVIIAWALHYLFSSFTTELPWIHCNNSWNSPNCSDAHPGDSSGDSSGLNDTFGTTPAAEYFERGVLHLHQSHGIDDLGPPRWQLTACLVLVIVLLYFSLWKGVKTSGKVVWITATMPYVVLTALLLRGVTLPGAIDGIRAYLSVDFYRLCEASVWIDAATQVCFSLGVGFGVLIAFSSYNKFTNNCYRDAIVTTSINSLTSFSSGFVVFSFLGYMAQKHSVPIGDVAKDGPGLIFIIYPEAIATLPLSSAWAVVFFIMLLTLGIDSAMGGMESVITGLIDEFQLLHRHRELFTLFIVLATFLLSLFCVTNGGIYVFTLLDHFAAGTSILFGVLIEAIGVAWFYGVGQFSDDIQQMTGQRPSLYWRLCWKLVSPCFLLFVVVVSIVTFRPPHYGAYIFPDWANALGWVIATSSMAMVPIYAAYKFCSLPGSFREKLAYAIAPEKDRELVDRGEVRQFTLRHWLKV
# Chain of Sodium-dependent serotonin transporter (P31645 whole entry): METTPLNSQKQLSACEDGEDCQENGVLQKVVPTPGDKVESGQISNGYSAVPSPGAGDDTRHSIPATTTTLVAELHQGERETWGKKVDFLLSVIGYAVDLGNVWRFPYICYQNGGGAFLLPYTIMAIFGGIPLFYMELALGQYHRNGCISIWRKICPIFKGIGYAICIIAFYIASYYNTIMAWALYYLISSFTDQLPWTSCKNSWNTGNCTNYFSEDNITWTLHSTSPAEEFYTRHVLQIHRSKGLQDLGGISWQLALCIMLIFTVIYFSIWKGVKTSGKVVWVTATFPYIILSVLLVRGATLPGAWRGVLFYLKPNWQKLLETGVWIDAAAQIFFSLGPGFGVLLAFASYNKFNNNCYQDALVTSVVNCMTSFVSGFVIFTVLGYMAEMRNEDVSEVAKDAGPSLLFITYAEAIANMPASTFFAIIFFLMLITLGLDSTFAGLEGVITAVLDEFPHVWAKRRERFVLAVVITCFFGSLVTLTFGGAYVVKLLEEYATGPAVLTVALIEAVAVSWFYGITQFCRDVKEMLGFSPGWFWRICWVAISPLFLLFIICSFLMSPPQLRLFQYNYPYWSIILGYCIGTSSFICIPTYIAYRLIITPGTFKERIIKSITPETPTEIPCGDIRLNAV
# Chain of Sodium-dependent noradrenaline transporter (P23975 whole entry): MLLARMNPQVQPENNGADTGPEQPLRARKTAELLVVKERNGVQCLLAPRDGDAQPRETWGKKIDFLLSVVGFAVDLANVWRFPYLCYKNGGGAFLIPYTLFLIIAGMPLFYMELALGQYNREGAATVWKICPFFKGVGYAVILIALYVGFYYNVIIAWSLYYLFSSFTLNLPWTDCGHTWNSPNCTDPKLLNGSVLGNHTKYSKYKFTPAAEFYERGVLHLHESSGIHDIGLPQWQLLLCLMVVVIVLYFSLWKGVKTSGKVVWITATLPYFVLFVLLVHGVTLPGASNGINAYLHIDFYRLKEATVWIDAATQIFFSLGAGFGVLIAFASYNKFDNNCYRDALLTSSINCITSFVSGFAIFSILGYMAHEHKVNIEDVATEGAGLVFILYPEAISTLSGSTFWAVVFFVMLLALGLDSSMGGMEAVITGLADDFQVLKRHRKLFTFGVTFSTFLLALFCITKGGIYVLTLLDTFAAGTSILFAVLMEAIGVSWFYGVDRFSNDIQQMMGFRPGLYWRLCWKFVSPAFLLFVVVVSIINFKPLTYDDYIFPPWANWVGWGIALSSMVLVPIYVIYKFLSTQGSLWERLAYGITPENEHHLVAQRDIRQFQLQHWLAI
# Chain of Histamine H1 receptor (P35367 whole entry): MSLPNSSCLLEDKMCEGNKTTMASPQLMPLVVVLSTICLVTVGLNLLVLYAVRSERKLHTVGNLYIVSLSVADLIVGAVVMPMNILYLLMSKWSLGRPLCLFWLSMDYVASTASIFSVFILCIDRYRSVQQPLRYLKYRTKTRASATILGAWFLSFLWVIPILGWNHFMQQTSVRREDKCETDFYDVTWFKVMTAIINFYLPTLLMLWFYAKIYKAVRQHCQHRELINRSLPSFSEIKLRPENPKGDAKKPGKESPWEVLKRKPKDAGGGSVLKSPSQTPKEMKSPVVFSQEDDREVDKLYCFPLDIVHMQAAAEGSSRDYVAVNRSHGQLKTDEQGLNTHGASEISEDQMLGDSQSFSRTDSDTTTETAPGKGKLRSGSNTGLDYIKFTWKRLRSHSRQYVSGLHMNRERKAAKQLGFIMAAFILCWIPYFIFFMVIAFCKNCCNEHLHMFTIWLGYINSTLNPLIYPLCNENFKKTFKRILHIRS
SMILES,IC50 [1] [µM],IC50 (cells) [µM],IC50 (Plasmodium falciparum [2]) [µM],IC50 [3] [µM],IC50 [4] [µM],IC50 (Plasmodium falciparum [5]) [µM],IC50 (Plasmodium falciparum [6]) [µM],Ratio IC50 (Plasmodium falciparum [7]),IC50 (Histamine H1 receptor) [µM],Ratio IC50 (Plasmodium falciparum [8]),IC50 (Plasmodium falciparum [9]) [µM],IC50 (Plasmodium falciparum [10]) [µM],Ratio IC50 (Plasmodium falciparum [11]),Ratio IC50 (Plasmodium falciparum [12])
CCN(CC)CCCn1c2ccccc2c(=O)c2ccccc21,> 10,22.5,1.6,> 10,> 10,8.1,–,–,–,–,–,–,–,–
CCNCCCC(C)Nc1ccnc2cc(Cl)ccc12 (centres undefined) [DESETHYLCHLOROQUINE],–,–,0.372,–,–,0.0182,–,–,–,–,–,–,–,–
CCN(CC)CCCCCCn1c2ccccc2c(=O)c2ccccc21,> 10,26.4,2.7,3.5,> 10,3.2,3.66,0.17,3.6,1,4.5,0.596,1.01,0.3
CCN(CC)CCn1c2ccccc2c(=O)c2ccccc21,> 10,28.5,7.5,> 10,> 10,11.8,–,–,–,–,–,–,–,–
CCN(CC)CCCCCn1c2ccccc2c(=O)c2ccccc21,9.1,30.5,5.8,7.8,> 10,3.7,–,–,–,–,–,–,–,–
CCN(CC)CCCCn1c2ccccc2c(=O)c2ccccc21,> 10,34.5,10.2,> 10,> 10,7.6,–,–,–,–,–,–,–,–
O=c1c2ccccc2n(CCCCCCCl)c2ccccc12,–,59.5,2.6,–,–,1.3,–,–,–,–,–,–,–,–
CN(C)CCC(c1ccc(Cl)cc1)c1ccccn1 (centres undefined) [CHLORPHENIRAMINE],–,33.4,3.9,–,–,61.2,–,–,–,–,–,–,–,–
CCN(CC)CCCCCCCCn1c2ccccc2c(=O)c2ccccc21,–,17.6,1.8,–,–,2.6,–,–,–,–,–,–,–,–
